Biological target: T1, Wee-1 kinase (Homo sapiens, UniProt P30291)
T1 construct: purchased Invitrogen PV3817
Experiment: Measurement of Wee-1 kinase activity (ADP-Glo luminescent kit)
Type: biochemical
Method: Method 1: Measurement of Wee-1 Kinase Activity
In the measurement of Wee-1 activity, a commercial peptide Poly(Lys Tyr (4:1)) hydrobromide was purchased from Sigma Aldrich and used as the substrate. Activated Wee-1 kinase was purchased from Invitrogen (PV3817) and an ADP-Glo luminescent kit was purchased from Promega.
All reactions took place in […] volumes in reaction buffer containing 40 mM Tris-HCl and 20 mM magnesium chloride, supplemented with 0.1 mg/mL bovine serum albumin and 2 mM DTT. Compounds were serially diluted in buffer and 5 μL of each concentration pipetted into a white 384 well plate (Sigma Aldrich M6186). A 5 μL aliquot of the Wee-1 enzyme was added to each well and the plate centrifuged for 1 min to ensure mixing of the enzyme and inhibitor.
The plate was incubated at room temperature for 30 minutes before the addition of 2.0 μg/mL of substrate and 30 μM ATP in a 5 μL aliquot. The plate was centrifuged for one minute and incubated for 1 h at RT.
15 µL of ADP-Glo stop reagent was added to each well to quench the reaction and deplete unconverted ATP. The plate was incubated for a further 40 min in the dark at RT.
30 μL of ADP-Glo kinase detection reagent was added to each well, converting ADP to ATP, catalysing the generation of luciferin by luciferase. The plate was shaken for 1 min, and incubated in the dark for an additional hour.
Luminescence from each well was detected using the Biotek Synergy4 HD plate reader and the percentage inhibition of kinase activity calculated for each inhibitor tested. Positive (kinase only) and negative (no kinase) controls were added to each plate to ensure specific interaction of kinase and inhibitor. The IC50 concentration for each inhibitor was calculated by plotting the percentage kinase inhibition against concentration of inhibitor and the curve generated by non-linear regression fitting.

T1 sequence (P30291 whole entry): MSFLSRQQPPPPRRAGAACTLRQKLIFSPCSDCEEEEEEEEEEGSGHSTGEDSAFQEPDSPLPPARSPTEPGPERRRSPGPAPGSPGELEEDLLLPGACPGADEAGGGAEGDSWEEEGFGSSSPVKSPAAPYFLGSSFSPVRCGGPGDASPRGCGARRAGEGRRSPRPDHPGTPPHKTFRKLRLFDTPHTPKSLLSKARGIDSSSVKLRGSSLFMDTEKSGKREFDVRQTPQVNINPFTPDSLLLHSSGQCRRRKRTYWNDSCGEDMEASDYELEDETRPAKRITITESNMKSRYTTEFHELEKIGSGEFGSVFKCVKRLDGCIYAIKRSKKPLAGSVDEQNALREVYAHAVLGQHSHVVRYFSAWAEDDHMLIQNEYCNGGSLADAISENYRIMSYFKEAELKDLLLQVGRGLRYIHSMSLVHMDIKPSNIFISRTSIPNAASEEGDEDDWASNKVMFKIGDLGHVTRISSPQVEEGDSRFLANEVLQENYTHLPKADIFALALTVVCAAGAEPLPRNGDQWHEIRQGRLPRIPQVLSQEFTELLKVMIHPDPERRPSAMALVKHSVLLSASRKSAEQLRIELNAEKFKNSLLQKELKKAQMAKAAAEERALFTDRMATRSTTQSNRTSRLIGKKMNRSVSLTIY

| IC50 | Structure (SMILES) |
| --- | --- |
| 10 to 100 nM | CN1CN(c2ccccc2Cl)C(=O)c2cnc(Nc3ccc(N4CCNCC4)cc3)nc21 [Example 24, 3-(2-Chlorophenyl)-1-methyl-7-((4-(piperazin-1-yl)phenyl)amino)-2,3-dihydropyrimido[4,5-d]pyrimidin-4(1H)-one] |
| 10 to 100 nM | CN1CN(c2c(Cl)cccc2Cl)C(=O)c2cnc(Nc3ccc(N4CC5(CNC5)C4)cc3)nc21 [Example 51, 7-((4-(2,6-diazaspiro[3.3]heptan-2-yl)phenyl)amino)-3-(2,6-dichlorophenyl)-1-methyl-2,3-dihydropyrimido[4,5-d]pyrimidin-4(1H)-one] |
| 10 to 100 nM | CN1CN(c2c(Cl)cccc2Cl)C(=O)c2cnc(Nc3ccc(N4CCNC(C(F)(F)F)C4)cc3)nc21 (stereo not drawn) [Example 62, 3-(2,6-dichlorophenyl)-1-methyl-7-((4-(3-(trifluoromethyl)piperazin-1-yl)phenyl)amino)-2,3-dihydropyrimido[4,5-d]pyrimidin-4(1H)-one] |
| 10 to 100 nM | COC[C@H]1CN(c2ccc(Nc3ncc4c(n3)N(C)CN(c3c(Cl)cccc3Cl)C4=O)cc2)CCN1C [Example 65, (R)-3-(2,6-dichlorophenyl)-7-((4-(3-(methoxymethyl)-4-methylpiperazin-1-yl)phenyl)amino)-1-methyl-2,3-dihydropyrimido[4,5-d]pyrimidin-4(1H)-one] |
| ≥ 100 nM | CN1CN(c2c(Cl)cccc2Cl)C(=O)c2cnc(Nc3ccc(N4CCN(C)C(C(F)(F)F)C4)cc3)nc21 (stereo not drawn) [Example 68, 3-(2,6-dichlorophenyl)-1-methyl-7-((4-(4-methyl-3-(trifluoromethyl)piperazin-1-yl)phenyl)amino)-2,3-dihydropyrimido[4,5-d]pyrimidin-4(1H)-one] |
| 10 to 100 nM | Cc1cccc(Cl)c1N1CN(C)c2nc(Nc3ccc(N4CCNCC4)cc3)ncc2C1=O [Example 92, 3-(2-chloro-6-methylphenyl)-1-methyl-7-((4-(piperazin-1-yl)phenyl)amino)-2,3-dihydropyrimido[4,5-d]pyrimidin-4(1H)-one] |
| 10 to 100 nM | C[C@@H]1CN(c2ccc(Nc3ncc4c(n3)N(C)CN(c3ccccc3Cl)C4=O)cc2)CCN1 [Example 94, (R)-3-(2-chlorophenyl)-1-methyl-7-((4-(3-methylpiperazin-1-yl)phenyl)amino)-2,3-dihydropyrimido[4,5-d]pyrimidin-4(1H)-one] |
| 10 to 100 nM | Cc1cccc(Cl)c1N1CN(C)c2nc(Nc3ccc(N4CCN[C@H](C)C4)cc3)ncc2C1=O [Example 100, (R)-3-(2-chloro-6-methylphenyl)-1-methyl-7-((4-(3-methylpiperazin-1-yl)phenyl)amino)-2,3-dihydropyrimido[4,5-d]pyrimidin-4(1H)-one] |

The next lines start with the molecule.

| Structure (SMILES) | IC50 |
| --- | --- |
| CN1CN(c2ccccc2Cl)C(=O)c2cnc(Nc3ccc(N4CC5C[C@H]4CN5)cc3)nc21 (stereo in doubt) [Example 104, 7-((4-((1S,4R)-2,5-diazabicyclo[2.2.1]heptan-2-yl)phenyl)amino)-3-(2-chlorophenyl)-1-methyl-2,3-dihydropyrimido[4,5-d]pyrimidin-4(1H)-one] | ≥ 100 nM |
| COc1ccc(CN2CN(c3c(Cl)cccc3Cl)C(=O)c3cnc(Nc4ccc(N5CCNCC5)cc4)nc32)cc1 [Example 8, 3-(2,6-Dichlorophenyl)-1-(4-methoxybenzyl)-7-((4-(piperazin-1-yl)phenyl)amino)-2,3-dihydropyrimido[4,5-d]pyrimidin-4(1H)-one] | ≥ 100 nM |
| C[C@@H]1CN(C)[C@@H](C)CN1c1ccc(Nc2ncc3c(n2)N(C)CN(c2c(Cl)cccc2Cl)C3=O)cc1 [Example 45, 3-(2,6-dichlorophenyl)-1-methyl-7-((4-((2R,5S)-2,4,5-trimethylpiperazin-1-yl)phenyl)amino)-2,3-dihydropyrimido[4,5-d]pyrimidin-4(1H)-one] | 10 to 100 nM |
| C[C@@H]1CN(c2ccc(Nc3ncc4c(n3)N(C)CN(c3c(Cl)cccc3Cl)C4=O)cc2F)CCN1C [Example 47, (R)-3-(2,6-dichlorophenyl)-7-((4-(3,4-dimethylpiperazin-1-yl)-3-fluorophenyl)amino)-1-methyl-2,3-dihydropyrimido[4,5-d]pyrimidin-4(1H)-one] | 10 to 100 nM |
| CN1CN(c2c(Cl)cccc2Cl)C(=O)c2cnc(Nc3ccc(N4CCN(C)[C@H](CO)C4)c(F)c3)nc21 [Example 50, (S)-3-(2,6-dichlorophenyl)-7-((3-fluoro-4-(3-(hydroxymethyl)-4-methylpiperazin-1-yl)phenyl)amino)-1-methyl-2,3-dihydropyrimido[4,5-d]pyrimidin-4(1H)-one] | 10 to 100 nM |
| C[C@@H]1CN(c2ccc(Nc3ncc4c(n3)N(C)CN(c3c(Cl)cccc3Cl)C4=O)cc2)C[C@H](C)N1C [Example 52, 3-(2,6-dichlorophenyl)-1-methyl-7-((4-((3R,5S)-3,4,5-trimethylpiperazin-1-yl)phenyl)amino)-2,3-dihydropyrimido[4,5-d]pyrimidin-4(1H)-one] | 10 to 100 nM |
| CN1CN(c2c(F)cccc2Cl)C(=O)c2cnc(Nc3ccc(N4C[C@@H]5C[C@H]4CN5)cc3)nc21 [Example 54, 7-((4-((1S,4S)-2,5-diazabicyclo[2.2.1]heptan-2-yl)phenyl)amino)-3-(2-chloro-6-fluorophenyl)-1-methyl-2,3-dihydropyrimido[4,5-d]pyrimidin-4(1H)-one] | 10 to 100 nM |
| CN1CN(c2c(F)cccc2Cl)C(=O)c2cnc(Nc3cccc(CO)c3)nc21 [Example 56, 3-(2-chloro-6-fluorophenyl)-7-((3-(hydroxymethyl)phenyl)amino)-1-methyl-2,3-dihydropyrimido[4,5-d]pyrimidin-4(1H)-one] | ≥ 100 nM |
| CN1CN(c2c(F)cccc2Cl)C(=O)c2cnc(Nc3ccc(N4CCOCC4)c(CO)c3)nc21 [Example 57] | 10 to 100 nM |
| COCc1cc(Nc2ncc3c(n2)N(C)CN(c2c(Cl)cccc2Cl)C3=O)ccc1N1CCN(C)CC1 [Example 69] | 10 to 100 nM |
| CN1CN(c2c(Cl)cccc2Cl)C(=O)c2cnc(Nc3ccc4c(c3)C3CCC(C4)N3)nc21 (stereo not drawn) [Example 70, 3-(2,6-dichlorophenyl)-1-methyl-7-((6,7,8,9-tetrahydro-5H-5,8-epiminobenzo[7]annulen-3-yl)amino)-2,3-dihydropyrimido[4,5-d]pyrimidin-4(1H)-one] | 10 to 100 nM |
| CN1CN(c2c(Cl)cccc2Cl)C(=O)c2cnc(Nc3ccc(N4CC5COCC(C4)N5C)cc3)nc21 [Example 71, 3-(2,6-dichlorophenyl)-1-methyl-7-((4-(9-methyl-3-oxa-7,9-diazabicyclo[3.3.1]nonan-7-yl)phenyl)amino)-2,3-dihydropyrimido[4,5-d]pyrimidin-4(1H)-one] | 10 to 100 nM |
| CN1CN(c2c(Cl)cccc2Cl)C(=O)c2cnc(Nc3ccc(N4CCOCC4)c(CO)c3)nc21 [Example 73, 3-(2,6-dichlorophenyl)-7-((3-(hydroxymethyl)-4-morpholinophenyl)amino)-1-methyl-2,3-dihydropyrimido[4,5-d]pyrimidin-4(1H)-one] | 10 to 100 nM |
| C[C@@H]1CN[C@@H](C)CN1c1ccc(Nc2ncc3c(n2)N(C)CN(c2c(Cl)cccc2Cl)C3=O)cc1F [Example 81, 3-(2,6-dichlorophenyl)-7-((4-((2R,5S)-2,5-dimethylpiperazin-1-yl)-3-fluorophenyl)amino)-1-methyl-2,3-dihydropyrimido[4,5-d]pyrimidin-4(1H)-one] | 10 to 100 nM |
| COc1cc(Nc2ncc3c(n2)N(C)CN(c2c(Cl)cccc2Cl)C3=O)ccc1N1C[C@@H]2C[C@H]1CN2 [Example 82, 7-((4-((1S,4S)-2,5-diazabicyclo[2.2.1]heptan-2-yl)-3-methoxyphenyl)amino)-3-(2,6-dichlorophenyl)-1-methyl-2,3-dihydropyrimido[4,5-d]pyrimidin-4(1H)-one] | 10 to 100 nM |
| C[C@@H]1CN(c2ccc(Nc3ncc4c(n3)N(C3CC3)CN(c3c(Cl)cccc3Cl)C4=O)cc2)CCN1 [Example 85, (R)-1-cyclopropyl-3-(2,6-dichlorophenyl)-7-((4-(3-methylpiperazin-1-yl)phenyl)amino)-2,3-dihydropyrimido[4,5-d]pyrimidin-4(1H)-one] | 10 to 100 nM |
| C[C@@H]1CN[C@@H](C)CN1c1ccc(Nc2ncc3c(n2)N(C)CN(c2c(F)cccc2Cl)C3=O)cc1 [Example 93, 3-(2-chloro-6-fluorophenyl)-7-((4-((2R,5S)-2,5-dimethylpiperazin-1-yl)phenyl)amino)-1-methyl-2,3-dihydropyrimido[4,5-d]pyrimidin-4(1H)-one] | 10 to 100 nM |
| C[C@@H]1CN[C@@H](C)CN1c1ccc(Nc2ncc3c(n2)N(C)CN(c2ccccc2Cl)C3=O)cc1 [Example 98, 3-(2-chlorophenyl)-7-((4-((2R,5S)-2,5-dimethylpiperazin-1-yl)phenyl)amino)-1-methyl-2,3-dihydropyrimido[4,5-d]pyrimidin-4(1H)-one] | 10 to 100 nM |
| C[C@@H]1CN(c2ccc(Nc3ncc4c(n3)N(C)CN(c3ccccc3Cl)C4=O)cc2F)CCN1 [Example 99, (R)-3-(2-chlorophenyl)-7-((3-fluoro-4-(3-methylpiperazin-1-yl)phenyl)amino)-1-methyl-2,3-dihydropyrimido[4,5-d]pyrimidin-4(1H)-one] | 10 to 100 nM |
